Assay results reported in patent US20030096831A1, “Ocular growth and nicotinic antagonists” (priority 2000, published 2003).
Several values for one entry are separate records, joined by “and”; a condition that tells them apart may be missing. Equal entries are not always repeated. Entries after “also recorded” stand apart in the source; their conditions may differ. Structures can show the parent of a compound that is named as a salt.

How the values were obtained:
[1] = system: chick eye (intraocular muscles, refraction, ocular dimensions); assay: Acute drug effects after a single intravitreal injection (pupil, refractometry, ultrasonography); type: in vivo, chicks
Procedure: Acute drug effects. To assess acute drug effects, other two-week old chicks (n=5/group) received a single unilateral intravitreal injection of one of the nicotinic antagonists at doses chosen based on drug effects on the growth of goggled eyes: 200 μg chlorisondamine, 50 μg and 1 μg mecamylamine, 5 μg methyllycaconitine or […] dihydro-β-erythroidine. Just before and at two hours and 24 hours after injection, both eyes were examined by refractometry and ultrasonography by the above methods.

form deprived eye = assay: Longer term effects of single-dose chlorisondamine on form deprivation myopia; type: in vivo, chicks; conditions: for Refraction Difference: goggled minus contralateral eye
Procedure: Longer term effects of single-dose chlorisondamine. In a separate experiment, another group of goggled chicks received a single intravitreal dose of 200 μg of chlorisondamine to the form deprived eye and saline to the contralateral eye only at the time of goggle application. They were compared to a group of unilaterally goggled chicks receiving a single saline injection to both eyes only at the time of goggle application. Neither group received subsequent intraocular injections. These chicks were evaluated by refractometry and ultrasound 4 days later, using ketamine/xylazine anesthesia. At one week after goggle application and single drug injection, the same chicks were evaluated again with refractometry, ultrasonography and caliper measurements of enucleated eyes as described above.

[2] = system: retina, retinal pigment epithelium, choroid; assay: Histopathological effects on goggled and never-goggled eyes; type: in vivo, chicks; conditions: one week
Procedure: Histopathological effects. To identify potential histopathologic effects in other groups of monocularly deprived or never-goggled one-week old chicks, chlorisondamine (200 or 100 μg every other day; n=5-6/group), mecamylamine (200 or 50 μg daily; n=5-8/group) or saline vehicle (n=3-9/group) was administered by intravitreal injection to the goggled eyes or to one of the open eyes of never-goggled chicks with vehicle to the contralateral eye, using the identical protocol as above. After one week of treatment, the above protocols provided refraction, ultrasound and caliper measurements. The eyes were then immersion fixed in 3% glutaraldehyde/0.5% paraformaldehyde in 0.1M phosphate buffer, pH 7.4. The posterior segments were either embedded in paraffin, cut at 5 μm thickness and stained with hematoxylin and eosin, or embedded in historesin, cut at 3 μm or 5 μm thickness and stained with 0.5% azure II/0.5% methylene blue in 1% borate.

non-goggled eyes = assay: Eye growth and refraction of non-goggled (open) eyes, intravitreal drug for one week
[3] = system: goggled eyes (form-deprivation myopia); assay: Form-deprivation myopia in unilaterally goggled chicks, intravitreal drug for one week; conditions: for axial length measured by digital calipers, goggled eyes, drug effect / axial length measured by ultrasound, goggled eyes, drug effect / equatorial diameter measured by calipers (equatorial expansion of vitreous cavity), goggled eyes, drug effect / refraction of goggled eyes (myopic refractive error), drug effect / vitreous cavity length measured by ultrasound, goggled eyes, drug effect: difference goggled vs contralateral open eye, ANOVA over all doses; for axial length measured by digital calipers, goggled eyes, drug effect / axial length measured by ultrasound, goggled eyes, drug effect / equatorial diameter measured by calipers (equatorial expansion of vitreous cavity), goggled eyes, drug effect / refraction of goggled eyes (myopic refractive error), drug effect / vitreous cavity length measured by ultrasound, goggled eyes, drug effect / overall effect on excessive ocular growth / experimental myopia of goggled eyes / anterior chamber depth of goggled eyes, drug effect: intravitreal; for anterior chamber depth of goggled eyes, drug effect: ANOVA
[4] = 2 hours after 200 μg single intravitreal injection
[5] = 24 hours after 200 μg single intravitreal injection
[6] = 1 Week after single 200 μg dose
[7] = 4 Days after single 200 μg dose
[8] = 100 μg every other day, goggled or non-goggled eyes
[9] = never-goggled chicks, drug treated vs contralateral vehicle treated eye, ANOVA on ranks
[10] = non-goggled chicks, treated eyes, P<0.05
[11] = goggled chicks, P<0.05, dose groups that differ
[12] = goggled chicks, P<0.05, dose groups that differ, listed as Chlorisondamine
[13] = two hours after single intravitreal injection of 50 μg
[14] = one week, listed as Dihydro-β-erythroidine, hydrobromide

C[N+](C)(C)CC[N+]1(C)Cc2c(Cl)c(Cl)c(Cl)c(Cl)c2C1 [chlorisondamine, chlorisondamine diiodide]
acute effect on ultrasound measurements of ocular dimensions, in words ([1]; 2 and 24 hours after single intravitreal injection): transiently reducing axial and vitreous cavity lengths at the 2 hour but not at the 24 hour reading
reduction in axial length by ultrasonography [1, 4]: 0.16±0.04 mm
reduction in posterior chamber depth by ultrasonography [1, 4]: 0.20±0.07 mm
reduction of lens thickness [1, 4]: 0.12±0.04 mm
axial length and posterior chamber depth at 24 hours [1, 5]: returned to baseline
reduction of lens thickness [1, 5]: 0.16±0.05 mm
pupil diameter, change from baseline ([1]; 24 hours after single intravitreal injection (chlorisondamine 200 μg)): 0.7±0.2 mm
pupil diameter, change from baseline ([1]; two hours after single intravitreal injection of 200 μg): 0.8±0.1 mm
axial length difference (ultrasound), ratio-chlorisondamine/vehicle (form deprived eye; 1 Week): 0.54
vitreous cavity length difference, ratio-chlorisondamine/vehicle (form deprived eye; 1 Week): 0.71
Caliper Measurements axial length difference (form deprived eye; [6]): 0.22 ± 0.10 mm**
Caliper Measurements equatorial diameter difference (form deprived eye; [6]): 0.17 ± 0.07 mm****
Ultrasound Measurements axial length difference (form deprived eye; [6]): 0.33 ± 0.11 mm**
Ultrasound Measurements vitreous cavity length difference (form deprived eye; [6]): 0.49 ± 0.08 mm*
Refraction Difference (form deprived eye; [6]): −8.58 ± 2.06 diopters
axial length difference (ultrasound), ratio-chlorisondamine/vehicle (form deprived eye; 4 Days): 0.47
vitreous cavity length difference, ratio-chlorisondamine/vehicle (form deprived eye; 4 Days): 0.70
Ultrasound Measurements axial length difference (form deprived eye; [7]): 0.20 ± 0.07 mm***
Ultrasound Measurements vitreous cavity length difference (form deprived eye; [7]): 0.28 ± 0.06 mm
Refraction Difference (form deprived eye; [7]): −2.98 ± 1.88 diopters**
response for form deprivation after a single dose, in words (form deprived eye; single dose of 200 μg at the time of goggle application, over the next week): significantly blunted the response for form deprivation over the next week
gross inspection of the eye cups [2, 8]: either a normal fundus or only mild peripheral pigmentary changes
histology [2, 8]: Some eyes had normal histology, some showed a single large, smooth hyper-pigmented inclusion within a rare RPE cell as the sole detectable histologic change, and some had a small isolated peripheral patch of the marked RPE/choriocapillaris pathology
gross inspection of the eye cup ([2]; 200 μg every other day, most goggled eyes (4/5) and all never-goggled eyes (n=5)): mild to marked mottling and depigmentation of the mid-peripheral fundus
histology of tissue sections ([2]; 200 μg every other day, regions corresponding to peripheral depigmented areas): marked disruption and clumping of cells of the retinal pigment epithelium (RPE)
equatorial expansion of the vitreous cavity, non-goggled drug-treated eyes (non-goggled eyes; never-goggled chicks, ANOVA on ranks): did not reach statistical significance
increase in lens thickness (non-goggled eyes; never-goggled chicks, both eyes of the 10 μg group compared to 50, 100 or 200 μg doses and saline chicks): about 0.1 mm
axial expansion of the vitreous cavity, non-goggled drug-treated eyes (non-goggled eyes; [9]): growth reduction was confined to the vitreous cavity; also recorded: inhibited the axial expansion of the vitreous cavity
axial length by calipers, non-goggled drug-treated eyes (non-goggled eyes; [9]): reduced the axial growth of drug-treated eyes; also recorded: reduced axial length
axial length by ultrasound, non-goggled drug-treated eyes (non-goggled eyes; [9]): reduced the axial growth of drug-treated eyes; also recorded: reduced axial length
refraction of non-goggled drug-treated eyes (non-goggled eyes; [9]): hyperopic shift in refraction; also recorded: shifted overall refraction towards hyperopia
Ultrasound measurements vitreous cavity depth: statistically significant post hoc pairwise comparisons (Tukey test) (non-goggled eyes; [10]): 100 μg and 50 μg and 100 μg vs. 50 μg
refraction: statistically significant post hoc pairwise comparisons (Tukey test) (non-goggled eyes; [10]): 200 μg and 10 μg and 200 μg vs. 10 μg
axial length measured by digital calipers, goggled eyes, drug effect ([3]; one week): inhibited the excessive axial elongation developing beneath a goggle
axial length measured by ultrasound, goggled eyes, drug effect ([3]; one week): inhibited the excessive axial elongation developing beneath a goggle
equatorial diameter measured by calipers (equatorial expansion of vitreous cavity), goggled eyes, drug effect ([3]; one week): reduced the vitreous cavity expansion
refraction of goggled eyes (myopic refractive error), drug effect ([3]; one week): reduced the myopic refractive error; also recorded: influenced the myopic refraction occurring beneath a goggle
vitreous cavity length measured by ultrasound, goggled eyes, drug effect ([3]; one week): reduced the vitreous cavity expansion
Ultrasound measurements vitreous cavity depth: statistically significant post hoc pairwise comparisons (Tukey test) [3, 11]: 100 μg vs. 50 μg
Ultrasound measurements axial length: statistically significant post hoc pairwise comparisons (Tukey test) [3, 12]: significant drug effects compared to the vehicle-treated controls
Ultrasound measurements vitreous cavity depth: statistically significant post hoc pairwise comparisons (Tukey test) [3, 12]: significant drug effects compared to the vehicle-treated controls
refraction: statistically significant post hoc pairwise comparisons (Tukey test) [3, 12]: significant drug effects compared to the vehicle-treated controls
overall effect on excessive ocular growth / experimental myopia of goggled eyes ([3]; one week): reduced the excessive ocular growth occurring beneath a goggle
anterior chamber depth of goggled eyes, drug effect ([3]; one week): no statistically significant effect

Br.COC1CC=C2CCN3CCC4=C(CC(=O)OC4)C23C1 (stereo not drawn) [dihydro-β-erythroidine, dihydro-β-crythroidine hydrobromide]
pupil diameter, change from baseline [1, 13]: 1.0±0.1 mm
axial length measured by digital calipers, goggled eyes, drug effect ([3]; one week): significant reduction
axial length measured by ultrasound, goggled eyes, drug effect ([3]; one week): none of the differences in refraction, ultrasound measurements or caliper measurements of the equatorial diameter reached statistical significance
equatorial diameter measured by calipers (equatorial expansion of vitreous cavity), goggled eyes, drug effect ([3]; one week): none of the differences in refraction, ultrasound measurements or caliper measurements of the equatorial diameter reached statistical significance
vitreous cavity length measured by ultrasound, goggled eyes, drug effect ([3]; one week): none of the differences in refraction, ultrasound measurements or caliper measurements of the equatorial diameter reached statistical significance
refraction of goggled eyes (myopic refractive error), drug effect ([3]; one week, hydrobromide): had no effect on the refraction of visually deprived eyes
refraction of goggled eyes (myopic refractive error), drug effect [3, 14]: none of the differences in refraction, ultrasound measurements or caliper measurements of the equatorial diameter reached statistical significance
Caliper measurements axial length: statistically significant post hoc pairwise comparisons (Tukey test) [3, 11]: no individual drug dose was identified
overall effect on excessive ocular growth / experimental myopia of goggled eyes ([3]; one week, hydrobromide): weaker as only the axial measurements by calipers showed a statistically significant drug effect
overall effect on excessive ocular growth / experimental myopia of goggled eyes [3, 14]: only a weak effect against experimental myopia

CNC1(C)C2CCC(C2)C1(C)C (stereo not shown) [mecamylamine]
pupil diameter, change from baseline ([1]; 24 hours after single intravitreal injection of 50 μg): 0.4±0.1 mm
pupil diameter, change from baseline ([1]; two hours after single intravitreal injection of 1 μg): 0.8±0.2 mm
pupil diameter, change from baseline [1, 13]: 0.3±0.1 mm
retinas, gross and histological appearance ([2]; 200 or 50 μg daily, goggled and non-goggled eyes): indistinguishable grossly or histologically from vehicle treated control eyes
growth or refraction of non-goggled eyes (non-goggled eyes; daily intravitreal injections, one week, doses of 50, 10 or 1 μg): no influence
induced myopia (refraction) of goggled eyes at the 50 μg dose ([3]; 50 μg daily intravitreal, one week): virtually eliminated the induced myopia
axial length measured by digital calipers, goggled eyes, drug effect ([3]; one week): no statistical effect
axial length measured by ultrasound, goggled eyes, drug effect ([3]; one week): only a trend towards a drug effect
equatorial diameter measured by calipers (equatorial expansion of vitreous cavity), goggled eyes, drug effect ([3]; one week): influenced
refraction of goggled eyes (myopic refractive error), drug effect ([3]; one week): altered refraction of goggled eyes; also recorded: influenced the myopic refraction occurring beneath a goggle
vitreous cavity length measured by ultrasound, goggled eyes, drug effect ([3]; one week): influenced the ultrasound measurements of vitreous cavity length
Caliper measurements equatorial diameter: statistically significant post hoc pairwise comparisons (Tukey test) [3, 11]: did not identify any individual doses that differed from the controls
Ultrasound measurements vitreous cavity depth: statistically significant post hoc pairwise comparisons (Tukey test) [3, 11]: 50 μg vs. 1 μg
refraction: statistically significant post hoc pairwise comparisons (Tukey test) [3, 11]: only the 50 μg dose differed significantly from the controls and 200 μg vs. 1 μg and 100 μg vs. 1 μg
Ultrasound measurements vitreous cavity depth: statistically significant post hoc pairwise comparisons (Tukey test) ([3]; goggled chicks, P<0.05, dose groups that differ, listed as Mecamylamine): the 1 μg dose as different from the 50 μg dose but not from the controls
overall effect on excessive ocular growth / experimental myopia of goggled eyes ([3]; one week): multiphasic response that differed between the low and high drug doses; also recorded: reduced the excessive ocular growth occurring beneath a goggle
growth and myopic refractive shift of goggled eyes at the lowest doses ([3]; lowest doses (1 and 10 μg) daily intravitreal): tended toward stimulating the growth and myopic refractive shift of goggled eyes

CCN1C[C@]2(COC(=O)c3ccccc3N3C(=O)C[C@H](C)C3=O)CC[C@H](OC)[C@@]34[C@@H]5C[C@H]6[C@H](OC)[C@@H]5[C@](O)(C[C@@H]6OC)[C@](O)([C@@H](OC)[C@H]23)[C@@H]14 [methyllycaconitine, methyllcaconitine citrate]
pupil diameter, change from baseline ([1]; two hours after single intravitreal injection of 5 μg): 0.4±0.2 mm
anterior chamber depth of goggled eyes, drug effect ([3]; one week): no effect
